Results reported in ChEMBL document CHEMBL1201862, “PubChem BioAssay data set” (2004).
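Cells were grown in 96-well plates and exposed to each compound for 48 hours at five concentrations; endpoints were interpolated linearly between bracketing concentrations, or set to the highest concentration if not reached. At the GI50, growth is halved.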 Active and inactive are the calls of the source. Rule as the data show it: active = GI50 up to about 1.1 µM and inactive = higher.

What was measured:
Experiment in all cases: inhibition of tumour cell growth, NCI panel, 48 h
786-0 = tested on: 786-0
SK-MEL-2 = tested on: SK-MEL-2
Malme-3M = tested on: Malme-3M
HL-60 = tested on: HL-60
SK-MEL-28 = tested on: SK-MEL-28
SNB-19 = tested on: SNB-19
RPMI-8226 = tested on: RPMI-8226
EKVX = tested on: EKVX
UACC-62 = tested on: UACC-62
SNB-75 = tested on: SNB-75
LOX IMVI = tested on: LOX IMVI
COLO 205 = tested on: COLO 205
CCRF-CEM = tested on: CCRF-CEM
NCI-H226 = tested on: NCI-H226
SK-MEL-5 = tested on: SK-MEL-5
M14 = tested on: M14
IGROV-1 = tested on: IGROV-1
MDA-MB-231 = tested on: MDA-MB-231
BT-549 = tested on: BT-549
MCF7 = tested on: MCF7
NCI-H23 = tested on: NCI-H23
NCI-H460 = tested on: NCI-H460
UACC-257 = tested on: UACC-257
OVCAR-4 = tested on: OVCAR-4
PC-3 = tested on: PC-3
T47D = tested on: T47D
HCT-116 = tested on: HCT-116
MDA-MB-435 = tested on: MDA-MB-435
DU-145 = tested on: DU-145
SR = tested on: SR
A498 = tested on: A498
SK-OV-3 = tested on: SK-OV-3
UO-31 = tested on: UO-31
SW-620 = tested on: SW-620
SF-268 = tested on: SF-268
MOLT-4 = tested on: MOLT-4
MDA-N = tested on: MDA-N
HOP-62 = tested on: HOP-62
K562 = tested on: K562
NCI/ADR-RES = tested on: NCI/ADR-RES
KM12 = tested on: KM12
SN12C = tested on: SN12C
SF-295 = tested on: SF-295
ACHN = tested on: ACHN
U-251 = tested on: U-251
Hs-578T = tested on: Hs-578T
CAKI-1 = tested on: CAKI-1
OVCAR-3 = tested on: OVCAR-3
A549 = tested on: A549
TK-10 = tested on: TK-10
NCI-H522 = tested on: NCI-H522
HCC 2998 = tested on: HCC 2998
OVCAR-5 = tested on: OVCAR-5
HCT-15 = tested on: HCT-15
SF-539 = tested on: SF-539
HT-29 = tested on: HT-29
OVCAR-8 = tested on: OVCAR-8
HOP-92 = tested on: HOP-92

In the case of N#C/C(N)=C(C#N)/N=C/Nc1ccc(N)cc1, the GI50 (786-0) is reported as > 100 µM (inactive), the GI50 (SK-MEL-2) is reported as > 100 µM (inactive) and the GI50 (Malme-3M) is reported as > 100 µM (inactive). The GI50 (HL-60) was 30.3 µM (inactive), the GI50 (SK-MEL-28) was > 100 µM (inactive) and the GI50 (SNB-19) was > 100 µM (inactive). For the same molecule, the GI50 (RPMI-8226) was > 100 µM (inactive), the GI50 (EKVX) was > 100 µM (inactive) and the GI50 (UACC-62) was > 100 µM (inactive). The GI50 (SNB-75) was > 100 µM (inactive), the GI50 (LOX IMVI) was > 100 µM (inactive) and the GI50 (COLO 205) was > 100 µM (inactive). The GI50 (CCRF-CEM) was 44.3 µM (inactive), the GI50 (NCI-H226) was > 100 µM (inactive) and the GI50 (SK-MEL-5) was 29.2 µM (inactive). For the same molecule, the GI50 (M14) was > 100 µM (inactive), the GI50 (IGROV-1) was > 100 µM (inactive) and the GI50 (MDA-MB-231) was > 100 µM (inactive). For the same molecule, the GI50 (BT-549) was > 100 µM (inactive), the GI50 (MCF7) was 96.6 µM (inactive) and the GI50 (NCI-H23) was > 100 µM (inactive). For the same molecule, the GI50 (NCI-H460) was > 100 µM (inactive), the GI50 (UACC-257) was > 100 µM (inactive) and the GI50 (OVCAR-4) was > 100 µM (inactive). For the same molecule, the GI50 (PC-3) was > 100 µM (inactive), the GI50 (T47D) was > 100 µM (inactive) and the GI50 (HCT-116) was > 100 µM (inactive). The GI50 (MDA-MB-435) was > 100 µM (inactive), the GI50 (DU-145) was > 100 µM (inactive) and the GI50 (SR) was > 100 µM (inactive). The GI50 (A498) was > 100 µM (inactive), the GI50 (SK-OV-3) was > 100 µM (inactive) and the GI50 (UO-31) was > 100 µM (inactive). The GI50 (SW-620) was > 100 µM (inactive), the GI50 (SF-268) was > 100 µM (inactive) and the GI50 (MOLT-4) was > 100 µM (inactive). For the same molecule, the GI50 (MDA-N) was > 100 µM (inactive), the GI50 (HOP-62) was > 100 µM (inactive) and the GI50 (K562) was > 100 µM (inactive). For the same molecule, the GI50 (NCI/ADR-RES) was > 100 µM (inactive), the GI50 (KM12) was > 100 µM (inactive) and the GI50 (SN12C) was > 100 µM (inactive). The GI50 (SF-295) was > 100 µM (inactive), the GI50 (ACHN) was > 100 µM (inactive) and the GI50 (U-251) was > 100 µM (inactive). The GI50 (Hs-578T) was 95.3 µM (inactive), the GI50 (CAKI-1) was > 100 µM (inactive) and the GI50 (OVCAR-3) was > 100 µM (inactive). The GI50 (A549) was > 100 µM (inactive), the GI50 (TK-10) was > 100 µM (inactive) and the GI50 (NCI-H522) was > 100 µM (inactive). For the same molecule, the GI50 (HCC 2998) was > 100 µM (inactive), the GI50 (OVCAR-5) was > 100 µM (inactive) and the GI50 (HCT-15) was over 100 µM. The GI50 (SF-539) was > 100 µM (inactive), the GI50 (HT-29) was > 100 µM (inactive) and the GI50 (OVCAR-8) was > 100 µM (inactive).
With C/C(=N/OC(=O)c1cccc2c(=O)c3ccccc3[nH]c12)[C@H]1CC[C@H]2[C@@H]3CCC4=C/C(=N/OC(=O)c5cccc6c(=O)c7ccccc7[nH]c56)CC[C@]4(C)[C@H]3CC[C@]12C the GI50 (786-0) was 18.5 µM (inactive), the GI50 (SK-MEL-2) was 12.8 µM (inactive) and the GI50 (Malme-3M) was 22.2 µM (inactive). The GI50 (HL-60) was 3.91 µM (inactive), the GI50 (SNB-19) was 18.2 µM (inactive) and the GI50 (RPMI-8226) was 2.9 µM (inactive). The GI50 (EKVX) was 10.6 µM (inactive), the GI50 (UACC-62) was 14.1 µM (inactive) and the GI50 (SNB-75) was 29.9 µM (inactive). For the same molecule, the GI50 (LOX IMVI) was 12.9 µM (inactive), the GI50 (COLO 205) was 15.8 µM (inactive) and the GI50 (CCRF-CEM) was 2.4 µM (inactive). The GI50 (NCI-H226) was 20 µM (inactive), the GI50 (SK-MEL-5) was 13.1 µM (inactive) and the GI50 (M14) was 14.6 µM (inactive). For the same molecule, the GI50 (IGROV-1) was 14.4 µM (inactive), the GI50 (MDA-MB-231) was 14.3 µM (inactive) and the GI50 (BT-549) was 17.7 µM (inactive). For the same molecule, the GI50 (MCF7) was 11.2 µM (inactive), the GI50 (NCI-H23) was 15.5 µM (inactive) and the GI50 (UACC-257) was 17.1 µM (inactive). The GI50 (OVCAR-4) was 34 µM (inactive), the GI50 (PC-3) was 10.5 µM (inactive) and the GI50 (T47D) was 14.5 µM (inactive). The GI50 (HCT-116) was 12.5 µM (inactive), the GI50 (MDA-MB-435) was 15.5 µM (inactive) and the GI50 (DU-145) was 22.7 µM (inactive). For the same molecule, the GI50 (SR) was 3.61 µM (inactive), the GI50 (SK-OV-3) was 27 µM (inactive) and the GI50 (UO-31) was 15 µM (inactive). For the same molecule, the GI50 (SW-620) was 13.9 µM (inactive), the GI50 (SF-268) was 17 µM (inactive) and the GI50 (HOP-92) was 21.3 µM (inactive). For the same molecule, the GI50 (MOLT-4) was 10.4 µM (inactive), the GI50 (MDA-N) was 14.1 µM (inactive) and the GI50 (HOP-62) was 24.8 µM (inactive). The GI50 (K562) was 4.97 µM (inactive), the GI50 (NCI/ADR-RES) was 20.4 µM (inactive) and the GI50 (KM12) was 15.2 µM (inactive). For the same molecule, the GI50 (SN12C) was 14.7 µM (inactive), the GI50 (SF-295) was 16.8 µM (inactive) and the GI50 (ACHN) was 16 µM (inactive). The GI50 (U-251) was 15.8 µM (inactive), the GI50 (Hs-578T) was 27.7 µM (inactive) and the GI50 (CAKI-1) was 21.2 µM (inactive). For the same molecule, the GI50 (OVCAR-3) was 17.1 µM (inactive), the GI50 (A549) was 25.6 µM (inactive) and the GI50 (TK-10) was 17.8 µM (inactive). The GI50 (NCI-H522) was 12.3 µM (inactive), the GI50 (HCC 2998) was 14 µM (inactive) and the GI50 (OVCAR-5) was 17.4 µM (inactive). For the same molecule, the GI50 (HCT-15) was 14 µM, the GI50 (SF-539) was 15.1 µM (inactive) and the GI50 (HT-29) was 13.5 µM (inactive). The GI50 (OVCAR-8) was 15.7 µM (inactive).
